This note sets out measurements from paper PMC3790881, “Identification of Leptospira interrogans Phospholipase C as a Novel Virulence Factor Responsible for Intracellular Free Calcium Ion Elevation during Macrophage Death” (PLoS ONE, 2013).

In the experiment the target is T1, rL-PI-PLC (recombinant LB361 gene product; L-PI-PLC) (Leptospira interrogans, UniProt Q8EX56).
T1 construct: gene LB_361; entire LB361 gene (amplicon 384 bp) in pET42a, expressed in E. coli BL21DE3, Ni-NTA purified
As to the kind of experiment: IP3 fluorescence polarization assay, Lineweaver-Burk plot. It is filed as biochemical. As to conditions: pH 7.0, 37 °C, 50 mM HEPES, 100 mM KCl, 1.9 mM CaCl2, 2 mM EGTA, 0.1% sodium deoxycholate; acyl chains of PIP2 not told.

T1 sequence (Q8EX56 entry or part of it): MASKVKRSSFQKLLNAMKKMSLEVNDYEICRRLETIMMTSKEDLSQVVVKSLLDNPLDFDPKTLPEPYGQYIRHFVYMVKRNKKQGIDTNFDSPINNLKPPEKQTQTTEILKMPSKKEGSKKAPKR

In the case of PIP2, the Km – broadly, the concentration of substrate that gives half-maximal velocity – turned out to be 199 µM.
